Legend:
human CCR2b receptor = target: T1, human CCR2b receptor (Homo sapiens, UniProt P41597); test: Inhibitory activity on cells expressing the human CCR2b receptor; assay type: cell-based
T1 sequence (P41597 1-360 isoform P41597-2): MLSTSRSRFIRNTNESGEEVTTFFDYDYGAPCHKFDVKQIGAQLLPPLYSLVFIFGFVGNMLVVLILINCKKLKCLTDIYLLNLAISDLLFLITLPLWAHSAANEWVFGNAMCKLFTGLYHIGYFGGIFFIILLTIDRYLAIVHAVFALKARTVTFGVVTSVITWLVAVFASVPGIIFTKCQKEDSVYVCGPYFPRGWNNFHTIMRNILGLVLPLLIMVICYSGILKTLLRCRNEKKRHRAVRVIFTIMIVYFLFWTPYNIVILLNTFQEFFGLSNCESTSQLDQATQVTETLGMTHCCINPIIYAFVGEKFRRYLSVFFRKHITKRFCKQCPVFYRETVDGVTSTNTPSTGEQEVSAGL
Description: The inhibitory activity of the compounds according to the invention on cells expressing the human CCR2b receptor was measured.

human THP-1 monocytes = test: Inhibition of chemotaxis on human THP-1 monocytes; assay type: cell-based
Description: The inhibition of chemotaxis was also measured on human THP-1 monocytes (sold by DSMZ—Germany) using a technique adapted from that described by A. Albini et al., Cancer Res., 1987, 47, 3239-3245. Under these conditions, hMCP-1 has an IC50 of 6 nM.

Compound	IC50 (human CCR2b receptor)	IC50 (human THP-1 monocytes)
CCCOc1ccc(OC)c(-c2csc(NC(=O)C3CCCN(C(=O)c4cc([N+](=O)[O-])cc([N+](=O)[O-])c4)C3)n2)c1 (stereo not drawn) [Compound 1]	290 nM	
COc1ccc(C2CCCCC2)cc1-c1csc(NC(=O)C2CCCN(C(=O)c3cccc(C#N)c3)C2)n1 (stereo not drawn) [Compound 20]	25 nM	
COc1ccc(C2CCCCC2)cc1-c1csc(NC(=O)C2CCCN(C(=O)c3ccoc3C)C2)n1 (stereo not drawn) [Compound 31]	44 nM	
COc1ccc(C2CCCCC2)cc1-c1csc(NC(=O)C2CCCN(C(=O)c3ccncn3)C2)n1 (stereo not drawn) [Compound 107, 1-(pyrimidine-4-carbonyl)piperidine-3-carboxylic acid [4-(5-cyclohexyl-2-methoxyphenyl)thiazol-2-yl]amide]	5 nM	
hMCP-1: "hMCP-1 (human monocyte chemotactic protein)", "belongs to the group or CC chemokines and which is a natural agonist of the CCR2b receptor"	0.57 nM	6 nM

— patent publication US7598392B2, “2-amido-4-phenylthiazole derivatives, the preparation and the therapeutic use thereof” (sanofi-aventis, priority 2004, dated 2009)
